Assays:
[1] = target: T1, human serum albumin (HSA) (Homo sapiens, UniProt P02768); assay: Fluorescence quenching of HSA by flavonoids (Stern–Volmer and Hyperquad2006 evaluation); format: binding; details: for Kd / logKSV (Stern–Volmer quenching constant): HSA 2 µmol/L, decimal log ± SEM; for Kd: PBS pH 7.4, Hyperquad2006, read-out: logK (binding constant) (converted); for logKSV (Stern–Volmer quenching constant): PBS pH 7.4, λex 295 nm, λem 340 nm; for Stability of flavonoid–HSA complex vs. the chrysin–HSA complex: relative to chrysin–HSA
T1 construct: purchased Sigma-Aldrich
Method: (§1) Fluorescence spectroscopic measurements were carried out employing a Hitachi F-4500 fluorimeter (Tokyo, Japan). Absorption spectra of flavonoids were recorded using a HALO DB-20 UV-Vis spectrophotometer (Dynamica, London, UK). Spectroscopic measurements were performed in phosphate-buffered saline (pH 7.4; PBS: 8.0 g/L NaCl, 0.2 g/L KCl, 1.81 g/L Na2HPO4·2H2O, and 0.24 g/L KH2PO4) at room temperature, in the presence of air.
(§2) The complex formation of flavonoids with albumin was tested with both HSA and BSA. Binding constants of flavonoid–albumin complexes were determined by fluorescence quenching, during which emission spectra of albumins (2 µmol/L) were recorded in the presence of increasing flavonoid concentrations (0.0, 0.5, 1.0, 2.0, 3.0, 4.0 and 5.0 µmol/L; λexc = 295 nm). Quenching studies were evaluated based on the graphical application of the Stern–Volmer equation [31, 34]. To eliminate the potential inner filter effects of flavonoids, fluorescence intensities were corrected as described.
(§3) Binding constants (K) of flavonoid–albumin complexes were also evaluated by non-linear fitting employing the Hyperquad2006 program package (Protonic Software, Leeds, UK) as described elsewhere. Binding constants and stoichiometry were quantified based on the model with the lowest standard deviation.

[2] = target: T2, bovine serum albumin (BSA) (Bos taurus, UniProt P02769); assay: Fluorescence quenching of BSA by flavonoids (Stern–Volmer and Hyperquad2006 evaluation); format: binding; details: BSA 2 µmol/L, decimal log ± SEM; for Kd: PBS pH 7.4, Hyperquad2006, read-out: logK (binding constant) (converted); for logKSV (Stern–Volmer quenching constant): PBS pH 7.4, λex 295 nm, λem 340 nm
T2 construct: purchased Sigma-Aldrich
Method: as §1, §2, §3

[3] = tested on: T3, warfarin–HSA complex (Sudlow's Site I); assay: Ultrafiltration: displacement of Site I marker warfarin from HSA; format: binding, human; details: 1 µmol/L warfarin, 5 µmol/L HSA, PBS pH 7.4
T3 construct: purchased Sigma-Aldrich
Method: (§4) Effects of chrysin, C7S, and C7G on the albumin-binding of Sudow’s Site I (warfarin) and Site II (naproxen) markers were tested by ultrafiltration. In these experiments, Pall Microsep^TM Advance Centrifugal Devices (Pall Corporation, Ann Arbor, MI, USA) (from VWR) with a 30 kDa molecular weight cut-off value were employed, as described elsewhere. To examine the displacement of warfarin by flavonoids, samples contained warfarin and HSA (1.0 and 5.0 µmol/L, respectively) in the absence and presence of flavonoids (10 or 20 µmol/L). Furthermore, to test the displacing ability of chrysin and its metabolites vs. naproxen, flavonoids (10 or 20 µmol/L) were added to naproxen and HSA (1.0 and 1.7 µmol/L, respectively). Each sample was prepared in PBS (pH 7.4). Before ultrafiltration, filter units were washed once with 3 mL of water, and twice with 3 mL of PBS (to completely eliminate glycerol from the filters). Thereafter, samples (2.5 mL each) were driven through the filter units by centrifugation at 7500 g and 25 °C for 10 min (fixed angle rotor). Concentrations of warfarin and naproxen in the filtrate were quantified with HPLC (see details in Section 4.4).
(§5) The HPLC system used to quantify warfarin and naproxen was equipped with a pump (model 510, Waters, Milford, MA, USA) and an injector (Rheodyne 7125, Rheodyne, Berkeley, CA, USA) with a 20 µL sample loop. Warfarin and naproxen were analyzed with a fluorescence detector (Jasco FP-920, Reanal) and an UV detector (Waters 486), respectively. Data were evaluated using Millennium Chromatography Manager (Waters).
Warfarin was analyzed based on the previously reported method without modifications. Methanol (VWR), acetonitrile (VWR), and sodium phosphate buffer (20 mM, pH 7.0) (25:5:70 v/v%) were applied in the mobile phase with 1 mL/min flow rate during the isocratic elution. Samples were driven through a guard column (Phenomenex SecurityGuard^TM Catridge C18 4.0 × 3.0 mm) linked to an analytical column (Nova-Pak C18 150 × 3.9 mm, 4 μm). Separation and analysis were performed at room temperature, during which warfarin was detected by fluorescence employing 310 and 390 nm as excitation and emission wavelengths, respectively.

[4] = tested on: T4, naproxen–HSA complex (Sudlow's Site II); assay: Ultrafiltration: displacement of Site II marker naproxen from HSA; format: binding, human; details: 1 µmol/L naproxen, 1.7 µmol/L HSA, PBS pH 7.4
T4 construct: purchased Sigma-Aldrich
Method: as §4, §5
Naproxen was quantified based on the previously reported method without modifications. Acetonitrile and sodium acetate buffer (6.9 mM, pH 4.0) (50:50 v/v%) were applied in the mobile phase with a 1 mL/min flow rate during the isocratic elution. […] Separation and analysis were performed at room temperature, during which naproxen was detected by absorbance at 230 nm.

warfarin–HSA complex [5] = tested on: T5, warfarin–HSA complex; assay: Steady-state fluorescence of warfarin–HSA complex (displacement of warfarin); format: binding, human; details: 1.0 µmol/L warfarin, 3.5 µmol/L HSA, flavonoid 0.5–10 µmol/L, λex 317 nm
T5 construct: purchased Sigma-Aldrich
Method: as §1
Displacement of warfarin (site marker of Sudlow’s Site I) from HSA was examined based on the previously reported model. Increasing concentrations of chrysin, C7S, and C7G (0.0, 0.5, 1.0, 2.0, 3.0, 5.0, and 10 µmol/L) were added to standard concentrations of warfarin and HSA (1.0 and 3.5 µmol/L, respectively). Thereafter, fluorescence emission spectra were recorded using 317 nm as excitation wavelength.

warfarin–HSA complex [6] = tested on: T5, warfarin–HSA complex; assay: Fluorescence anisotropy of warfarin–HSA complex; format: binding, human; details: 1.0 µmol/L warfarin, 2.0 µmol/L HSA, increasing flavonoid concentrations, λex 317 nm, λem 379 nm
Method: as §1
To confirm further the displacement of warfarin from HSA by chrysin, C7S, and C7G, fluorescence anisotropy measurements were also performed. Increasing concentrations of flavonoids (0.0, 1.0, 2.0, 5.0, and 10 µmol/L) were added to warfarin and HSA (1.0 and 2.0 µmol/L, respectively). Fluorescence anisotropy values were determined (λex = 317 nm; λem = 379 nm) as described.

[7] = set-up: method as in PMID 25715997; details: mice, oral administration of 20 mg/kg chrysin; read-out: Cmax (peak plasma concentration); cited from earlier work
[8] = set-up: method as in PMID 11259985; details: healthy human volunteers, 400 mg chrysin orally; cited from earlier work
HSA = details: cited from earlier work
[9] = 10 and 20 μM flavonoid (both concentrations)
[10] = 10 or 20 μM flavonoid (both concentrations)

T1 sequence (P02768 25-609): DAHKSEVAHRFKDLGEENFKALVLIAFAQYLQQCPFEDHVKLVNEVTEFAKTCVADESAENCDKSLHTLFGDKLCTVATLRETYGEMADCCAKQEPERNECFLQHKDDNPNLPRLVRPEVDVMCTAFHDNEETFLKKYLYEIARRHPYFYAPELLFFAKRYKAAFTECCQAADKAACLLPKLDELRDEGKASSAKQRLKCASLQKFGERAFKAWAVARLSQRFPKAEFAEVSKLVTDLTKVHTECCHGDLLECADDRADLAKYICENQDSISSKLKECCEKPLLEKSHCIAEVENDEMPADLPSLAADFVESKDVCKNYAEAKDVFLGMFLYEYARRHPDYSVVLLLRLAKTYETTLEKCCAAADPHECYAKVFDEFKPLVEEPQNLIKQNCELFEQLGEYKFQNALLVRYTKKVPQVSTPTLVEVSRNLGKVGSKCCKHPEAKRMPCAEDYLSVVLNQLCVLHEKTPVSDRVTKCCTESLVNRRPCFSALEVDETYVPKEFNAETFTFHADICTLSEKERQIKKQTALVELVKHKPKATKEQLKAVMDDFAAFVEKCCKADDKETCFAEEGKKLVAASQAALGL
T2 sequence (P02769 25-607): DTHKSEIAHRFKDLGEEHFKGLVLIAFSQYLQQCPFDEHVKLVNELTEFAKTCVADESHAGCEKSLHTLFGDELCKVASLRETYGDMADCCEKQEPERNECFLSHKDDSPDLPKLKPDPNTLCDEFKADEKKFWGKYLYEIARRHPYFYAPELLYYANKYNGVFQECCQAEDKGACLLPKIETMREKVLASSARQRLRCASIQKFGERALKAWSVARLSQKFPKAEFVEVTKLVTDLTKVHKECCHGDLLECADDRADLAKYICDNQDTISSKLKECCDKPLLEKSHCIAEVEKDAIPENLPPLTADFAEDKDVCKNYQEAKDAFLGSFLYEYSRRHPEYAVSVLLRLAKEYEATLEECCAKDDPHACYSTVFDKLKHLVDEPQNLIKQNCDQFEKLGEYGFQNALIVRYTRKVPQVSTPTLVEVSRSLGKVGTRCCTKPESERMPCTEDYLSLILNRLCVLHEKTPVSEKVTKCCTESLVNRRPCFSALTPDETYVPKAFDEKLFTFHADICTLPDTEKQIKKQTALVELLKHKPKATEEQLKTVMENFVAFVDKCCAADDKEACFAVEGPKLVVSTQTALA

Structure (SMILES)	Kd [1] [µM]	logKSV (Stern–Volmer quenching constant) [1] [L/mol]	Kd [2] [µM]	logKSV (Stern–Volmer quenching constant) [2] [L/mol]	Concentration of warfarin in the filtrate ([3]; 20 μM flavonoid)	Concentration of naproxen in the filtrate [4, 9]	Fluorescence emission signal of warfarin at 379 nm (warfarin–HSA complex [5])	Fluorescence anisotropy of warfarin (warfarin–HSA complex [6])	Cmax [7] [nM]	AUC0–∞ [8] [ng·h/mL]	K (binding constant to HSA) (HSA)	Stability of flavonoid–HSA complex vs. the chrysin–HSA complex [1]	Concentration of warfarin in the filtrate [3, 10]	Concentration of naproxen in the filtrate ([4]; higher flavonoid concentration (20 μM))	Concentration of warfarin in the filtrate ([3]; 10 μM flavonoid)	AUC0–∞ of C7S compared with chrysin [8]	logK (complex with HSA) (HSA)
O=c1cc(-c2ccccc2)oc2cc(O)cc(O)c12 [Chrysin, 5,7-dihydroxyflavone]	3.89	5.25 ± 0.02	6.31	5.03 ± 0.06	statistically significant (albeit slight) increase	statistically significant elevation	significantly decreased	strong decrease	10	3 to 16	10^5–10^6 L/mol						
O=C(O)C1OC(Oc2cc(O)c3c(=O)cc(-c4ccccc4)oc3c2)C(O)C(O)C1O (stereo not shown) [Chrysin-7-glucuronide, chrysin-7-glucuronide]	12.9	4.71 ± 0.03	23.4	4.34 ± 0.03			only a slight (but statistically significant) effect		130			threefold lower	did not significantly change	significant effect			
O=c1cc(-c2ccccc2)oc2cc(OS(=O)(=O)O)cc(O)c12 [Chrysin-7-sulfate, chrysin-7-sulfate]	1.32	5.61 ± 0.03	0.631	5.86 ± 0.04		statistically significant elevation	strongest decrease	strong decrease	160	420 to 4220		threefold higher	practically the complete displacement of bound warfarin molecules from HSA		remarkable increase	approximately 30 fold	
C[C@@H]1Cc2c(Cl)cc(C(=O)N[C@@H](Cc3ccccc3)C(=O)O)c(O)c2C(=O)O1 [Ochratoxin A, ochratoxin A, reference compound]																	7.4–7.6

Reference: publication PMC6320863, “Interaction of Chrysin and Its Main Conjugated Metabolites Chrysin-7-Sulfate and Chrysin-7-Glucuronide with Serum Albumin” (International Journal of Molecular Sciences, 2018)
